Measurements as given in ChEMBL document CHEMBL5532732, “Structure-Based Rational Design of Constrained Peptides as TIM-3 Inhibitors” (ACS Med Chem Lett, 2024).
Active and inactive are the calls of the source. The rule behind the calls is not given here. Peptide text beside a SMILES is read from it.

Assays:
[1] = Stability in simulated gastric fluids at pH 1.6 assessed as half life; type: ADME; conditions: simulated gastric fluid
[2] = Stability in human plasma assessed as compound remaining incubated for 2 hrs; type: ADME, cell-free; conditions: read-out: Stability
[3] = tested on: Kasumi 1; experiment: Antiproliferative activity against human Kasumi 1 cells at 1 uM; type: functional, cell-based
[4] = Stability in rat liver microsomes assessed as half life; type: ADME, Microsome
[5] = Distribution coefficient, log D of the compound at pH 7.4 by shake flask method; type: physicochemical; conditions: octanol/water
[6] = Stability in simulated Intestinal fluids at pH 6.5 assessed as half life; type: ADME; conditions: simulated intestinal fluid
[7] = Apparent permeability across apical to basolateral in human Caco-2 cells; type: ADME, cell-based
[8] = tested on: PBMC; experiment: Induction of cytokine production in human PBMC cells assessed as increase in IFN-gamma level at 1 uM in the presence of TIM3 stimulation by ELISA method; type: functional, cell-based
[9] = organism: Homo sapiens; conditions: dose 250.0 nM
Description: Inhibition of recombinant human Gal-9 to biotinylated recombinant human TIM3 protein-protein interaction at 250 nM by ELISA method

[10] = Apparent permeability across basolateral to apical in human Caco-2 cells; type: ADME, cell-based

- half-life [1]: 8.7 h
- remaining at 2 h [2]: 95.4%
- half-life [4]: 12.4 h
- logD [5]: 3.52
- half-life [6]: 16.4 h
- Papp A→B [7]: 8.16 ×10⁻⁶ cm/s
- inhibition [9]: Active
- Papp B→A [10]: 12.5 ×10⁻⁶ cm/s
SMILES: CC[C@H](C)[C@@H]1NC(=O)[C@H](Cc2ccc(O)cc2)NC(=O)[C@H](CS)NC(=O)[C@H](CO)NC(=O)[C@H](Cc2ccccc2)NC(=O)CNC(=O)[C@H](CO)NC(=O)[C@H](CO)NC(=O)[C@H](CO)NC(=O)[C@H](CS)NC(=O)[C@H](Cc2ccc(O)cc2)NC(=O)[C@H](CO)NC1=O (cyclo(CSSSGFSCYISY))
- Activity [3]: inactive
- Activity [8]: Active
